ChEMBL document CHEMBL1201862, “PubChem BioAssay data set” (2004)
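Following 48 hours of exposure in 96-well plates, responses at five concentrations were used to interpolate endpoints linearly. The concentration for 50% growth inhibition is given as GI50.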 Activity calls are given as the source filed them. Cut-off read from the data, not from the text of the source: active = GI50 up to about 1.1 µM and inactive = higher.

Legend:
Assay in all cases: NCI anticancer screen, dose series, 48 h
HT-29 = tested on: HT-29
SNB-19 = tested on: SNB-19
MDA-MB-231 = tested on: MDA-MB-231
SW-620 = tested on: SW-620
UO-31 = tested on: UO-31
Hs-578T = tested on: Hs-578T
HL-60 = tested on: HL-60
NCI-H522 = tested on: NCI-H522
SF-539 = tested on: SF-539
DU-145 = tested on: DU-145
NCI-H226 = tested on: NCI-H226
COLO 205 = tested on: COLO 205
OVCAR-8 = tested on: OVCAR-8
NCI-H23 = tested on: NCI-H23
OVCAR-5 = tested on: OVCAR-5
U-251 = tested on: U-251
Malme-3M = tested on: Malme-3M
M14 = tested on: M14
UACC-257 = tested on: UACC-257
KM-20L2 = tested on: KM-20L2

| SMILES | GI50 (HT-29) | GI50 (SNB-19) | GI50 (MDA-MB-231) | GI50 (SW-620) | GI50 (UO-31) | GI50 (Hs-578T) | GI50 (HL-60) | GI50 (NCI-H522) | GI50 (SF-539) | GI50 (DU-145) | GI50 (NCI-H226) | GI50 (COLO 205) | GI50 (OVCAR-8) | GI50 (NCI-H23) | GI50 (OVCAR-5) | GI50 (U-251) | GI50 (Malme-3M) | GI50 (M14) | GI50 (UACC-257) | GI50 (KM-20L2) |
| --- | --- | --- | --- | --- | --- | --- | --- | --- | --- | --- | --- | --- | --- | --- | --- | --- | --- | --- | --- | --- |
| Cc1ccc(-n2c(O)c(C#N)c3[nH]nc(N)c3c2=O)cc1 | > 100 µM (inactive) | > 100 µM (inactive) | > 100 µM (inactive) | > 100 µM (inactive) | > 100 µM (inactive) | > 100 µM (inactive) | > 100 µM (inactive) | > 100 µM (inactive) | > 100 µM (inactive) | > 100 µM (inactive) | > 100 µM (inactive) | > 100 µM (inactive) | > 100 µM (inactive) | > 100 µM (inactive) | > 100 µM (inactive) | > 100 µM (inactive) | > 100 µM (inactive) | > 100 µM (inactive) | > 100 µM (inactive) |  |
| COc1ncc(/C=C2\OC(=O)c3ccccc32)c(OC)n1 | 64.6 µM (inactive) | 26.5 µM (inactive) | > 100 µM (inactive) | > 100 µM (inactive) | 12.9 µM (inactive) | 10.1 µM (inactive) | > 100 µM (inactive) | 26.1 µM (inactive) | 12.7 µM (inactive) | 88.9 µM (inactive) | 66.1 µM (inactive) | > 100 µM (inactive) | 8.13 µM (inactive) | > 100 µM (inactive) | > 100 µM (inactive) | 13.6 µM (inactive) | 10.7 µM (inactive) | 72.3 µM (inactive) | 57.3 µM (inactive) |  |
| CC[C@@]1(O)C(=O)OCc2c1cc1n(c2=O)Cc2c-1nc1ccccc1c2/C=N\NC(=O)C(N)CC(C)C (stereo partly specified) | 0.228 µM (active) | < 0.01 µM (active) | 1.25 µM (inactive) | 0.0887 µM (active) | < 0.0106 µM (active) | 11.3 µM (inactive) | < 0.01 µM (active) | < 0.0175 µM (active) | < 0.01 µM (active) | < 0.01 µM (active) | 0.0277 µM (active) | 0.708 µM (active) | < 0.0132 µM (active) | < 0.01 µM (active) | 0.726 µM (active) | < 0.01 µM (active) | 0.107 µM (active) | < 0.0128 µM (active) | 0.0536 µM (active) |  |
| COC(=O)c1oc([N+](=O)[O-])c(-c2ccccc2)c1-c1ccccc1 | 88.3 µM (inactive) | > 100 µM (inactive) |  | > 100 µM (inactive) | > 100 µM (inactive) |  |  | > 100 µM (inactive) | > 100 µM (inactive) |  | > 100 µM (inactive) | 37.7 µM (inactive) | > 100 µM (inactive) | > 100 µM (inactive) | > 100 µM (inactive) | > 100 µM (inactive) | > 100 µM (inactive) | > 100 µM (inactive) | > 100 µM (inactive) | > 100 µM (inactive) |
| O=[N+]([O-])c1cccc2nccc(NCCN3CCOCC3)c12 | 13.5 µM (inactive) | 25.7 µM (inactive) | 21.7 µM (inactive) | 8.91 µM (inactive) | 27.2 µM (inactive) | 15.9 µM (inactive) | 10.6 µM (inactive) | 3.95 µM (inactive) | 20.3 µM (inactive) | 41.7 µM (inactive) | 10.2 µM (inactive) | 19.6 µM (inactive) | 20.1 µM (inactive) | 11.7 µM (inactive) | 21.4 µM (inactive) | 22.2 µM (inactive) | 13.8 µM (inactive) | 15.9 µM (inactive) | 10 µM (inactive) |  |
| N=C(N)NCC1CCCCCCN1 (stereo unspecified) | > 100 µM (inactive) | > 100 µM (inactive) | > 100 µM (inactive) | > 100 µM (inactive) | > 100 µM (inactive) | > 100 µM (inactive) | > 100 µM (inactive) | > 100 µM (inactive) | > 100 µM (inactive) | > 100 µM (inactive) | > 100 µM (inactive) | > 100 µM (inactive) | > 100 µM (inactive) | > 100 µM (inactive) | > 100 µM (inactive) | > 100 µM (inactive) | > 100 µM (inactive) | > 100 µM (inactive) | > 100 µM (inactive) |  |
| COc1ccc(N2CN3OC(=O)N(c4ccc(OC)cc4)[C@@]3(c3ccccc3)C2)cc1 | 6.49 µM (inactive) | 44 µM (inactive) | 10 µM (inactive) | 6.04 µM (inactive) | 32.9 µM (inactive) | 37.6 µM (inactive) | 2.77 µM (inactive) | 10.5 µM (inactive) | 17 µM (inactive) | 81.5 µM (inactive) | 47.6 µM (inactive) | 13.4 µM (inactive) | 33.3 µM (inactive) | 23.6 µM (inactive) | 54.6 µM (inactive) | 11.9 µM (inactive) | 10.8 µM (inactive) | 34.4 µM (inactive) | 26.5 µM (inactive) |  |
| Cc1cc(C)c2c(=O)cc(-c3ccccc3)[nH]c2c1 | 1.17 µM (inactive) | 5.43 µM (inactive) | 8.22 µM (inactive) | 0.738 µM (active) | 9.46 µM (inactive) | 4.59 µM (inactive) | 0.479 µM (active) | 0.755 µM (active) | 2.31 µM (inactive) | 4.44 µM (inactive) | 9.66 µM (inactive) | 1.17 µM (inactive) | 3.66 µM (inactive) | 2.66 µM (inactive) | 10.4 µM (inactive) | 3.25 µM (inactive) | 2.71 µM (inactive) | 3.37 µM (inactive) | 21.7 µM (inactive) |  |
| NCCCCN(CCCN)Cc1ccc2ccccc2c1 | 23.3 µM (inactive) | 12.9 µM (inactive) | 32.4 µM (inactive) | > 100 µM (inactive) | 13.7 µM (inactive) | 11.3 µM (inactive) | 67.5 µM (inactive) | 13.5 µM (inactive) | 30.8 µM (inactive) | 66.7 µM (inactive) | 21.5 µM (inactive) | 35.2 µM (inactive) | 39.4 µM (inactive) | 25.3 µM (inactive) | 28.8 µM (inactive) | 59 µM (inactive) | 51.8 µM (inactive) | 57 µM (inactive) | > 100 µM (inactive) |  |
| CN(C)c1cccc(NC2=NCCO2)c1 | 19.2 µM (inactive) | 52.8 µM (inactive) | 51.4 µM (inactive) | 57.7 µM (inactive) | > 100 µM (inactive) | 43.6 µM (inactive) | 23.1 µM (inactive) | 80.2 µM (inactive) | 46.6 µM (inactive) | > 100 µM (inactive) | 47.2 µM (inactive) | 20.6 µM (inactive) | 66.8 µM (inactive) | 23.6 µM (inactive) | > 100 µM (inactive) | 83.8 µM (inactive) | 33.9 µM (inactive) | 37.5 µM (inactive) | 48.9 µM (inactive) |  |
| Cc1ccc(C(=N)Nc2ccccc2)cc1 | 69.7 µM (inactive) | > 100 µM (inactive) | > 100 µM (inactive) | > 100 µM (inactive) | > 100 µM (inactive) | > 100 µM (inactive) | > 100 µM (inactive) | > 100 µM (inactive) | > 100 µM (inactive) | > 100 µM (inactive) | > 100 µM (inactive) | 20.9 µM (inactive) | > 100 µM (inactive) | > 100 µM (inactive) | > 100 µM (inactive) | > 100 µM (inactive) | > 100 µM (inactive) | > 100 µM (inactive) | 38 µM (inactive) |  |
